Source: publication PMC5107132 (European journal of pharmacology, 2016)

How the values were obtained:
[1] = system: Wistar rats; details: ref Savić et al., 2008; cited from earlier work
[2] = target: T1, α3β3γ2 GABAA receptors (Rattus norvegicus, UniProt P18508+P20236); test: Two-electrode voltage clamp in Xenopus oocytes, α3β3γ2; assay type: cell-based; details: 200 mg/kg dose
[3] = In vitro hydrolytic stability study in rat plasma; assay type: in vitro ADME; details: for % remaining in plasma (in vitro metabolic stability) / Total plasma concentration (in vitro metabolic stability): rat plasma 37 °C
[4] = target: α1β3γ2 GABAA receptors (Rattus norvegicus, UniProt P18508+P62813); details: 100 nM; ref Savić et al., 2010; cited from earlier work
[5] = target: T2, α2β3γ2 GABAA receptors (Rattus norvegicus, UniProt P18508+P23576); details: 100 nM; ref Savić et al., 2010; cited from earlier work
[6] = target: α3β3γ2S GABAA receptors (Rattus norvegicus, UniProt P18508+P20236); details: read-out: Ki at α3β3γ2 GABAA receptors; ref Savić et al., 2010; cited from earlier work
[7] = target: T3, α5β3γ2S GABAA receptors (Rattus norvegicus, UniProt P18508+P19969); details: read-out: Ki at α5β3γ2 GABAA receptors; ref Savić et al., 2010; cited from earlier work
[8] = Pharmacokinetic study, plasma and brain concentrations after i.p. injection; details: rat, 20 min
[9] = target: κ opioid receptor (KOR) (Homo sapiens, UniProt P41145); details: read-out: Affinity at KOR; ref B. Roth et al., NIMH Psychoactive Drug Screening Program; cited from earlier work
[10] = target: T2, α2β3γ2 GABAA receptors; test: Two-electrode voltage clamp in Xenopus oocytes, α2β3γ2; assay type: cell-based; details: 200 mg/kg dose
[11] = target: T1, α3β3γ2 GABAA receptors; details: 100 nM; ref Savić et al., 2010; cited from earlier work
[12] = target: α1β3γ2S GABAA receptors (Rattus norvegicus, UniProt P18508+P62813); details: read-out: Ki at α1β3γ2 GABAA receptors; ref Savić et al., 2010; cited from earlier work
[13] = target: T4, α5β3γ2 GABAA receptors (Rattus norvegicus, UniProt P18508+P19969); details: 100 nM; ref Savić et al., 2010; cited from earlier work
[14] = target: T4, α5β3γ2 GABAA receptors; test: Two-electrode voltage clamp in Xenopus oocytes, α5β3γ2; assay type: cell-based
[15] = target: T3, α5β3γ2S GABAA receptors; test: 3H-flunitrazepam competition binding, α5β3γ2S; details: ratio of Ki values
[16] = target: α2β3γ2S GABAA receptors (Rattus norvegicus, UniProt P18508+P23576); details: read-out: Ki at α2β3γ2 GABAA receptors; ref Savić et al., 2010; cited from earlier work
[17] = Plasma protein and brain tissue binding; assay type: in vitro ADME, rat; details: rapid equilibrium dialysis
[18] = system: Wistar rats; test: Rotarod test; assay type: in vivo, rat; details: 200 mg/kg i.p.; vs. 180 s with control animals; n = 4

In the case of `C#Cc1ccc2c(c1)C(c1ccccc1F)=N[C@@H](C)c1c(C(=O)OCC)ncn1-2` [SH-053-2′F-S-CH3], the “Median incapacitating dose (rotarod)” value [1] is listed as 219 mg/kg.

With `C#Cc1ccc2c(c1)C(c1ccccc1F)=N[C@H](C)c1c(C(=O)OCC)ncn1-2` [SH-053-2′F-R-CH3] the “Estimated potentiation at α3GABAARs” value [2] was 155%, the “% remaining in plasma (in vitro metabolic stability)” value (“% remaining in plasma” for short) ([3]; 0 min) was 100% and the “Total plasma concentration (in vitro metabolic stability)” value (“Total plasma concentration” below) ([3]; 0 min) was 0.5556 µM. The “% remaining in plasma” value ([3]; 30 min) was 76.64%, the “Total plasma concentration” value ([3]; 30 min) was 0.4258 ± 0.0042 µM and the “% remaining in plasma” value ([3]; 60 min) was 62.77%. The “Total plasma concentration” value ([3]; 60 min) was 0.3487 ± 0.0040 µM, the “% remaining in plasma” value ([3]; 120 min) was 38.27% and the “Total plasma concentration” value ([3]; 120 min) was 0.2126 ± 0.0036 µM. The “% remaining in plasma” value ([3]; 240 min) was 5.24%, the “Total plasma concentration” value ([3]; 240 min) was 0.0291 ± 0.0023 µM and the “In vitro metabolic stability during incubation in rat plasma” value ([3]; rat, plasma) was “less stable”. For the same compound, the “% of control current, α1β3γ2” value [4] was 111 ± 2%, the “% of control current, α2β3γ2” value [5] was 124 ± 9% and the Ki [6] was 769 nM. For the same compound, the Ki [7] was 95.2 nM, the “Brain free (estimated) concentration” value ([8]; 10 mg/kg i.p.) was 29.10 ± 5.14 nmol/kg and the Brain total concentration ([8]; 10 mg/kg i.p.) was 752.00 ± 132.84 nmol/kg. The “Plasma free (estimated) concentration” value ([8]; 10 mg/kg i.p.) was 278.60 ± 52.39 nmol/L, the Plasma total concentration ([8]; 10 mg/kg i.p.) was 406.43 ± 76.45 nmol/L and the “Brain free (estimated) concentration” value ([8]; 20 mg/kg i.p.) was 38.85 ± 3.39 nmol/kg. For the same compound, the Brain total concentration ([8]; 20 mg/kg i.p.) was 1003.57 ± 87.55 nmol/kg, the “Plasma free (estimated) concentration” value ([8]; 20 mg/kg i.p.) was 288.32 ± 47.99 nmol/L and the Plasma total concentration ([8]; 20 mg/kg i.p.) was 420.63 ± 70.01 nmol/L. The “Brain free (estimated) concentration” value ([8]; 30 mg/kg i.p.) was 64.40 ± 14.64 nmol/kg, the Brain total concentration ([8]; 30 mg/kg i.p.) was 1663.84 ± 378.29 nmol/kg and the “Plasma free (estimated) concentration” value ([8]; 30 mg/kg i.p.) was 380.78 ± 46.73 nmol/L. The Plasma total concentration ([8]; 30 mg/kg i.p.) was 555.51 ± 68.18 nmol/L, the “Brain free (estimated) concentration” value ([8]; 150 mg/kg i.p.) was 147.74 ± 37.36 nmol/kg and the Brain total concentration ([8]; 150 mg/kg i.p.) was 3816.79 ± 965.21 nmol/kg. For the same compound, the “Plasma free (estimated) concentration” value ([8]; 150 mg/kg i.p.) was 1100.14 ± 186.36 nmol/L, the Plasma total concentration ([8]; 150 mg/kg i.p.) was 1604.96 ± 271.88 nmol/L and the “Brain free (estimated) concentration” value ([8]; 200 mg/kg i.p.) was 324.16 ± 89.88 nmol/kg. The Brain total concentration ([8]; 200 mg/kg i.p.) was 8374.25 ± 2322.03 nmol/kg, the “Plasma free (estimated) concentration” value ([8]; 200 mg/kg i.p.) was 1876.71 ± 196.63 nmol/L and the Plasma total concentration ([8]; 200 mg/kg i.p.) was 2737.87 ± 286.86 nmol/L. For the same compound, the Ki [9] was 240 nM, the “Estimated potentiation at α2GABAARs” value [10] was 171% and the “% of control current, α3β3γ2” value [11] was 125 ± 8%. For the same compound, the Ki [12] was 759 nM, the “% of control current, α5β3γ2” value [13] was 183 ± 7% and the “Estimated potentiation of GABA-mediated currents at α5GABAARs” value ([14]; approximated from estimated free rat brain concentration, 200 mg/kg i.p.) was 280%. The “Concentration needed to elicit 300% potentiation at α5GABAARs” value ([14]; read from concentration-response curves of Savić et al., 2010) was “above 300 nM”, the “Selectivity in binding to α5GABAARs compared to α1-containing GABAA receptors” value [15] was 8 fold and the “Selectivity in binding to α5GABAARs compared to α2-containing GABAA receptors” value [15] was 10 fold. For the same compound, the Ki [16] was 948 nM, the “Free fraction in brain tissue” value ([17]; rat brain tissue) was 3.87% and the “Free fraction in plasma” value ([17]; rat plasma) was 68.55%. The “Rotarod, time remaining on the rod” value [18] was 154 ± 26 s.
